Reference: patent US20240139221A1, “TREATMENT OF HPV-INDUCED NEOPLASIA” (priority 2022, published 2024)

Legend:
[1] = Approximate solubility in solvents at 25° C. and 50° C., visual observation; type: physicochemical
Experimental: The maximum volume of each solvent added was 1 mL. Approximate solubility was determined by visual observation.
Maximum volume of each solvent added was 1 mL. Approximate solubility was determined by visual observation.

[2] = Solubility in buffers, water and simulated vaginal fluid at 37° C.; details: for pH of solution at 2 hrs: 37° C.; for solubility at 0.5 h / solubility at 2 h: 37 °C, thermodynamic from solid
Experimental: About 4 mg of Compound I Pattern 1 was added into 2 mL of buffer solution.
(§1) Solubility was tested in five media, pH 3.0 citrate buffer, pH 4.5 acetate buffer, pH 6.8 phosphate buffer, water, simulated vaginal fluid (pH 4.2) at 37° C. for 0.5 h and 2 h.
The salt amount used is equivalent to 10 mg anhydrous free base. […] The obtained clear solutions were analyzed by pH meter for pH, and solubility was determined by observation.
as §1

[3] = Hygroscopicity by DVS at 25° C.; type: physicochemical; details: DVS 25° C.; for D. (%) Cycle 1: Desorption cycle 1; for D. (%) Cycle 2: Desorption cycle 2; for S. (%) Cycle 1: Sorption cycle 1; for S. (%) Cycle 2: Sorption cycle 2
Experimental: Hygroscopicity was investigated by DVS at 25° C., using the following method: […]

[4] = Tablet stability study (purity by HPLC); type: physicochemical
Experimental: Tablets were prepared using the excipients and excipient ratios shown in the first column of the following tables. The tablets were then stored under the conditions indicated and periodically sampled and tested for purity by HPLC.

[5] = Bulk stability (accelerated stability, one week; HPLC and XRPD)
Experimental: Bulk stability: Accelerated stability experiments were conducted at 25° C./92% RH and 40° C./75% RH in an open container, 60° C. in a tight container for one week.
Samples were characterized by XRPD and HPLC and inspected for color change.
Accelerated stability experiments were conducted at 25° C./92% RH in an open container, at 40° C./75% RH in an open container, and at 60° C. in a tight container for one week.

[6] = acetate buffer, pH 4.5, aqueous buffer
[7] = citrate buffer, pH 3, aqueous buffer
[8] = phosphate buffer, pH 6.8, aqueous buffer
[9] = simulated vaginal fluid, pH 4.2, fassgf or other biorelevant
[10] = excipients Carbomer (49%) + Hydrated Dextrose (49%)
[11] = excipients Carbomer (49%) + Mannitol (49%)
[12] = excipients PC (49%) + Anhydrous Lactose (49%)
[13] = excipients PC (49%) + MCC (49%)
[14] = 25° C., 92% RH, open container, one week
[15] = 40° C., 75% RH, open container, one week
[16] = 60° C., tight container, one week

SMILES: CCOC(=O)[C@H](C)NP(=O)(COCCn1cnc2c(OC)nc(N)nc21)OCc1ccccc1 (stereo partly drawn) [Compound I, ethyl(((2-(2-amino-6-methoxy-9H-purin-9-yl)ethoxy)methyl)(benzyloxy)-phosphoryl)-L-alaninate]
- Solubility (mg/mL) 25° C. ([1]; Acetone): >100 mg/mL
- Solubility (mg/mL) 50° C. ([1]; Acetone): >500 mg/mL
- Solubility (mg/mL) 25° C. ([1]; Acetonitrile): >100 mg/mL
- Solubility (mg/mL) 50° C. ([1]; Acetonitrile): >500 mg/mL
- Solubility (mg/mL) 25° C. ([1]; Dichloromethane): >100 mg/mL
- Solubility (mg/mL) 50° C. ([1]; Dichloromethane): >500 mg/mL
- Solubility (mg/mL) 25° C. ([1]; Ethanol): >100 mg/mL
- Solubility (mg/mL) 50° C. ([1]; Ethanol): >500 mg/mL
- Solubility (mg/mL) 25° C. ([1]; Ethyl acetate (EA)): >100 mg/mL
- Solubility (mg/mL) 50° C. ([1]; Ethyl acetate (EA)): >500 mg/mL
- Solubility (mg/mL) 25° C. ([1]; Heptanes): <2 mg/mL
- Solubility (mg/mL) 50° C. ([1]; Heptanes): <10 mg/mL
- Solubility (mg/mL) 25° C. ([1]; Isopropanol (IPA)): >100 mg/mL
- Solubility (mg/mL) 50° C. ([1]; Isopropanol (IPA)): >500 mg/mL
- Solubility (mg/mL) 25° C. ([1]; Isopropyl acetate): >100 mg/mL
- Solubility (mg/mL) 50° C. ([1]; Isopropyl acetate): >500 mg/mL
- Solubility (mg/mL) 25° C. ([1]; Methanol): >100 mg/mL
- Solubility (mg/mL) 50° C. ([1]; Methanol): >500 mg/mL
- Solubility (mg/mL) 25° C. ([1]; Methyl ethyl ketone): >100 mg/mL
- Solubility (mg/mL) 50° C. ([1]; Methyl ethyl ketone): >500 mg/mL
- Solubility (mg/mL) 25° C. ([1]; Methyl t-butyl ether (MTBE)): <2 mg/mL
- Solubility (mg/mL) 50° C. ([1]; Methyl t-butyl ether (MTBE)): <10 mg/mL
- Solubility (mg/mL) 25° C. ([1]; Tetrahydrofuran): >100 mg/mL
- Solubility (mg/mL) 50° C. ([1]; Tetrahydrofuran): 167 to 250 mg/mL
- Solubility (mg/mL) 25° C. ([1]; Water): 20 to 25 mg/mL
- Solubility (mg/mL) 50° C. ([1]; Water): 25 to 27 mg/mL
- pH of solution at 2 hrs ([2]; Simulated vaginal fluid (pH adjusted with 0.2N NaOH)): (5.53)
- pH of solution at 2 hrs ([2]; Water): (7.55)
- solubility at 0.5 h [2, 6]: > 2 mg/mL
- solubility at 2 h [2, 6]: > 2 mg/mL
- solubility at 0.5 h [2, 7]: > 2 mg/mL
- solubility at 2 h [2, 7]: > 2 mg/mL
- pH of solution at 2 hrs ([2]; pH 3.0 100 mM citrate buffer): (2.98)
- pH of solution at 2 hrs ([2]; pH 4.5 50 mM acetate buffer): (4.50)
- pH of solution at 2 hrs ([2]; pH 6.8 50 mM phosphate buffer): (6.81)
- solubility at 0.5 h [2, 8]: > 2 mg/mL
- solubility at 2 h [2, 8]: > 2 mg/mL
- solubility at 0.5 h [2, 9]: > 2 mg/mL
- solubility at 2 h [2, 9]: > 2 mg/mL
- solubility at 0.5 h ([2]; water): > 2 mg/mL
- solubility at 2 h ([2]; water): > 2 mg/mL
- D. (%) Cycle 1 ([3]; 0% RH): 0.00%
- D. (%) Cycle 1 ([3]; 10% RH): 0.11%
- D. (%) Cycle 1 ([3]; 20% RH): 0.23%
- D. (%) Cycle 1 ([3]; 30% RH): 0.47%
- D. (%) Cycle 1 ([3]; 40% RH): 0.60%
- D. (%) Cycle 2 ([3]; 0% RH): 0.19%
- D. (%) Cycle 2 ([3]; 10% RH): 0.37%
- D. (%) Cycle 2 ([3]; 20% RH): 0.57%
- D. (%) Cycle 2 ([3]; 30% RH): 0.83%
- D. (%) Cycle 2 ([3]; 40% RH): 1.09%
- D. (%) Cycle 2 ([3]; 50% RH): 1.48%
- D. (%) Cycle 2 ([3]; 60% RH): 1.96%
- D. (%) Cycle 2 ([3]; 70% RH): 2.78%
- D. (%) Cycle 2 ([3]; 80% RH): 4.33%
- D. (%) Cycle 2 ([3]; 90% RH): 9.10%
- D. (%) Cycle 2 ([3]; 95% RH): 14.32%
- S. (%) Cycle 1 ([3]; 0% RH): 0.00%
- S. (%) Cycle 1 ([3]; 10% RH): 0.08%
- S. (%) Cycle 1 ([3]; 20% RH): 0.17%
- S. (%) Cycle 1 ([3]; 30% RH): 0.28%
- S. (%) Cycle 1 ([3]; 40% RH): 0.41%
- S. (%) Cycle 1 ([3]; 50% RH): 0.61%
- S. (%) Cycle 1 ([3]; 60% RH): 0.85%
- S. (%) Cycle 1 ([3]; 70% RH): 1.14%
- S. (%) Cycle 1 ([3]; 80% RH): 1.64%
- S. (%) Cycle 1 ([3]; 90% RH): 4.27%
- S. (%) Cycle 1 ([3]; 95% RH): 14.32%
- S. (%) Cycle 2 ([3]; 0% RH): 0.19%
- S. (%) Cycle 2 ([3]; 10% RH): 0.22%
- S. (%) Cycle 2 ([3]; 20% RH): 0.30%
- S. (%) Cycle 2 ([3]; 30% RH): 0.44%
- S. (%) Cycle 2 ([3]; 40% RH): 0.62%
- purity by HPLC, 0 months [4, 10]: 99.52
- purity by HPLC, 1 month 25 C./60% RH [4, 10]: 82.44
- purity by HPLC, 1 month 40 C./75% RH [4, 10]: 0.17
- purity by HPLC, 0 months [4, 11]: 98.87
- purity by HPLC, 1 month 25 C./60% RH [4, 11]: 91.54
- purity by HPLC, 1 month 40 C./75% RH [4, 11]: 6.75
- purity by HPLC, 0 months [4, 12]: 99.40
- purity by HPLC, 1 month 25 C./60% RH [4, 12]: 95.98
- purity by HPLC, 1 month 40 C./75% RH [4, 12]: 41.3
- purity by HPLC, 0 months [4, 13]: 98.64
- purity by HPLC, 1 month 25 C./60% RH [4, 13]: 97.16
- purity by HPLC, 1 month 40 C./75% RH [4, 13]: 46.11
- XRPD after storage ([5]; 25° C., 84% RH, open container, 2 days): No change
- HPLC (purity) after storage [5, 14]: 98.5%
- XRPD after storage [5, 14]: No change
- HPLC (purity) after storage [5, 15]: 95.2%
- XRPD after storage [5, 15]: No change
- HPLC (purity) after storage [5, 16]: 98.5%
- XRPD after storage [5, 16]: No change
- HPLC (purity), Initial ([5]; initial, before storage): 98.7%
